Results published in ChEMBL document CHEMBL3763094, “Synthesis of 2-arylfuro[3,2-b]pyridines: Effect of the C2-aryl group on melatoninergic activity” (Eur J Med Chem, 2016).
Calls of active or inactive are those of the source. The calls are words filed in the database; no cut-off is given here.

Legend:
[1] = target: T1, Melatonin receptor type 1A (Homo sapiens, UniProt P48039); test: Displacement of [125I]2-Iodomelatonin from human MT1 receptor expressed in HEK293 cells after 120 mins by radioligand competition assay; assay type: cell-based
[2] = species on record: Homo sapiens; test: Selectivity ratio of Ki for human MT1 receptor to Ki for human MT2 receptor
[3] = target: T1, Melatonin receptor type 1A; test: Partial agonist activity at MT1 receptor (unknown origin) expressed in CHO cells incubated for 1 hr by [35S]GTPgammaS binding assay; assay type: functional, cell-based
[4] = target: T2, Melatonin receptor type 1B (Homo sapiens, UniProt P49286); test: Displacement of [125I]2-Iodomelatonin from human MT2 receptor expressed in HEK293 cells after 120 mins by radioligand competition assay; assay type: cell-based
T2 sequence (P49286 whole entry): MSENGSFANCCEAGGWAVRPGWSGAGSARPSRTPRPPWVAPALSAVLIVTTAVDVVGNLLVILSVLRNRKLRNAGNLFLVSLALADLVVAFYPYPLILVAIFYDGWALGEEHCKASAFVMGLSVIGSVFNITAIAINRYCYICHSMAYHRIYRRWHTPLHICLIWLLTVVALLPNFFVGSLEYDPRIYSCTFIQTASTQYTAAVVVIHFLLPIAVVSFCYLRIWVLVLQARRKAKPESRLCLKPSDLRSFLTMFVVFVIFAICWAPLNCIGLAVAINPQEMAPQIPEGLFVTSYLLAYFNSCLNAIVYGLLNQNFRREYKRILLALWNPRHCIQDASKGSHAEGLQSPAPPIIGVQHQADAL

[5] = target: T3, Melatonin receptor type 1B (Homo sapiens) (UniProt P49286); test: Antagonist activity at MT2 receptor (unknown origin) expressed in CHO cells assessed as inhibition of melatonin-induced response for 30 mins by [35S]GTPgammaS binding assay; assay type: functional, cell-based
T3 sequence (whole entry): T2 sequence (P49286 whole entry)

[6] = target: T1, Melatonin receptor type 1A; test: Antagonist activity at MT1 receptor (unknown origin) expressed in CHO cells assessed as inhibition of melatonin-induced response for 30 mins by [35S]GTPgammaS binding assay; assay type: functional, cell-based
[7] = target: T1, Melatonin receptor type 1A; test: Agonist activity at MT1 receptor (unknown origin) expressed in CHO cells incubated for 1 hr by [35S]GTPgammaS binding assay; assay type: functional, cell-based
[8] = target: T3, Melatonin receptor type 1B (Homo sapiens); test: Agonist activity at MT2 receptor (unknown origin) expressed in CHO cells incubated for 1 hr by [35S]GTPgammaS binding assay; assay type: functional, cell-based
[9] = target: T3, Melatonin receptor type 1B (Homo sapiens); test: Partial agonist activity at MT2 receptor (unknown origin) expressed in CHO cells incubated for 1 hr by [35S]GTPgammaS binding assay; assay type: functional, cell-based

T1 sequence (P48039 whole entry): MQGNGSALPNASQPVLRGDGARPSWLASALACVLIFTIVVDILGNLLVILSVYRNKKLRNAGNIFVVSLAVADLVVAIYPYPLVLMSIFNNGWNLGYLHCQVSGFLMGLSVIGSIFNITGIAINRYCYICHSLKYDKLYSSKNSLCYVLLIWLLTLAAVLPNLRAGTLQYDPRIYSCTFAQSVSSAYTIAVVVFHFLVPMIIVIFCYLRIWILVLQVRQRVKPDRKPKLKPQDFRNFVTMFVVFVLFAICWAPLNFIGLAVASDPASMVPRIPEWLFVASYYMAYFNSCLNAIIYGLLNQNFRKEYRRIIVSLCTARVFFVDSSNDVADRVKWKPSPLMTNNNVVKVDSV

Row | SMILES | Ki [1] [nM] | Ratio Ki [2] | Activity [3] | Ki [4] [nM] | Activity [5] | Activity [6] | Activity [7] | Activity [8] | Activity [9]
1 | COc1ccc2oc(-c3cc4ccccc4c4ccccc34)c(CCNC(C)=O)c2n1 | 68 | 13.6 | Active | 5 | Active | – | – | – | –
2 | COc1ccc2oc(-c3cccc4ccccc34)c(CCNC(C)=O)c2n1 | 198 | 152 | – | 1.3 | Active | Active | – | – | –
3 | CCC(=O)NCCCc1cc(OC)ccc1OCc1cccc(OC)c1 | – | 790 | – | – | – | – | – | – | –
4 | COc1ccc2[nH]cc(CCNC(C)=O)c2n1 | – | 0.7 | – | – | – | – | – | – | –
5 | COc1ccc2oc(-c3c(C)cccc3C)c(CCNC(C)=O)c2n1 | 120 | 13.3 | – | 9 | – | Active | – | – | Active
6 | COc1cc2c(CCNC(C)=O)coc2cn1 | 73 | 1.2 | – | 59 | – | – | – | – | –

Further compounds by falling Ki [1], results first:

Row | Ki [1] [nM] | Ratio Ki [2] | Activity [3] | Ki [4] [nM] | Activity [5] | Activity [6] | Activity [7] | Activity [8] | Activity [9] | SMILES
7 | 31 | 6.2 | Active | 5 | Active | – | – | – | – | COc1ccc2oc(-c3c4ccccc4cc4ccccc34)c(CCNC(C)=O)c2n1
8 | 9.5 | 0.3 | – | 35 | – | – | – | – | – | COc1cc2c(CCNC(C)=O)c[nH]c2cn1
9 | 2.2 | 22.2 | – | 0.09 | Active | – | Active | – | – | COc1ccc2oc(-c3ccc4ccccc4c3)c(CCNC(C)=O)c2n1
10 | 1.6 | 1.5 | – | 1.2 | – | – | Active | Active | – | COc1ccc2occ(CCNC(C)=O)c2n1
11 | 0.2 | 6.7 | – | 0.03 | – | – | Active | Active | – | COc1ccc2oc(-c3ccc(F)cc3)c(CCNC(C)=O)c2n1
12 | 0.2 | 2.5 | – | 0.08 | – | – | Active | Active | – | COc1ccc2oc(I)c(CCNC(C)=O)c2n1
13 | 0.04 | 0.3 | – | 0.14 | – | – | Active | Active | – | COc1ccc2oc(-c3ccccc3)c(CCNC(C)=O)c2n1
